How the values were obtained:
[1] = system: Sclerotinia homoeocarpa (SCLEHO); test: Field assessment of Sclerotinia homoeocarpa (SCLEHO), dollar spot, on creeping bentgrass; type: in vivo
[2] = system: Glomerella graminicola (COLLGR); test: Field assessment of Glomerella graminicola (COLLGR), anthracnose, on annual bluegrass; type: in vivo

## COc1ccnc(C(=O)N[C@@H](C)C(=O)O[C@@H](C)C(c2ccc(F)cc2)c2ccc(F)cc2)c1OC(C)=O [Compound I, (S)-1,1-bis(4-fluorophenyl)propan-2-yl (3-acetoxy-4-methoxypicolinoyl)-L-alaninate]
[1]; 250 g ai/ha, 0 DAAA, percentage of plot infested
  Dollar Spot Infestation (% Visual): 2.2%
[1]; 250 g ai/ha, 6 DAAC
  Dollar Spot Infestation (% Visual): 0.6%
[1]; 250 g ai/ha, 8 DAAA
  Dollar Spot Infestation (% Visual): 0.8%
[1]; 250 g ai/ha, 8 DAAB
  Dollar Spot Infestation (% Visual): 0.8%
[1]; 250 g ai/ha, 13 DAAB
  Dollar Spot Infestation (% Visual): 1.1%
[1]; 250 g ai/ha, 13 DAAC
  Dollar Spot Infestation (% Visual): 2.1%
[1]; 250 g ai/ha, 14 DAAA
  Dollar Spot Infestation (% Visual): 0.7%
[1]; 500 g ai/ha, 0 DAAA
  Dollar Spot Infestation (% Visual): 1.7%
[1]; 500 g ai/ha, 6 DAAC
  Dollar Spot Infestation (% Visual): 0.3%
[1]; 500 g ai/ha, 8 DAAA
  Dollar Spot Infestation (% Visual): 0.5%
[1]; 500 g ai/ha, 8 DAAB
  Dollar Spot Infestation (% Visual): 0.5%
[1]; 500 g ai/ha, 13 DAAB
  Dollar Spot Infestation (% Visual): 0.6%
[1]; 500 g ai/ha, 13 DAAC
  Dollar Spot Infestation (% Visual): 0.5%
[1]; 500 g ai/ha, 14 DAAA
  Dollar Spot Infestation (% Visual): 0.5%
[1]; Compound I applied at 500 g ai/ha
  Dollar spot control compared with commercial standards (in words): provided better control than Eagle 20EW and was equivalent to Xzemplar Fungicide
[1]; formulations of Compound I, observation period
  Dollar spot disease control (in words): significantly reduce dollar spot disease
[2]; 250 and 500 g ai/ha treatments, Poa annua
  Anthracnose control compared with commercial standard (in words): equivalent to the control provided by Velista
[2]; 250 g ai/ha, 0 DAAA, Poa annua, percentage of plot infested
  Anthracnose Infestation (% Visual): 22.1%
[2]; 250 g ai/ha, 8 DAAA, Poa annua
  Anthracnose Infestation (% Visual): 7%
[2]; 250 g ai/ha, 10 DAAB, Poa annua
  Anthracnose Infestation (% Visual): 22.1%
[2]; 250 g ai/ha, 11 DAAC, Poa annua
  Anthracnose Infestation (% Visual): 11.5%
[2]; 250 g ai/ha, 14 DAAA, Poa annua
  Anthracnose Infestation (% Visual): 7%
[2]; 250 g ai/ha, 17 DAAB, Poa annua
  Anthracnose Infestation (% Visual): 11.5%
[2]; 250 g ai/ha, 17 DAAC, Poa annua
  Anthracnose Infestation (% Visual): 22.1%
[2]; 500 g ai/ha, 0 DAAA, Poa annua
  Anthracnose Infestation (% Visual): 43.2%
[2]; 500 g ai/ha, 8 DAAA, Poa annua
  Anthracnose Infestation (% Visual): 9.2%
[2]; 500 g ai/ha, 10 DAAB, Poa annua
  Anthracnose Infestation (% Visual): 9.2%
[2]; 500 g ai/ha, 11 DAAC, Poa annua
  Anthracnose Infestation (% Visual): 11.5%
[2]; 500 g ai/ha, 14 DAAA, Poa annua
  Anthracnose Infestation (% Visual): 7%
[2]; 500 g ai/ha, 17 DAAB, Poa annua
  Anthracnose Infestation (% Visual): 11.5%
[2]; 500 g ai/ha, 17 DAAC, Poa annua
  Anthracnose Infestation (% Visual): 11.5%
[2]; formulations of Compound I, Poa annua putting greens
  Anthracnose disease control (in words): provided significant control of anthracnose disease

Reference: patent US11191269B2, “Use of an acyclic picolinamide compound as a fungicide for fungal diseases on turfgrasses” (Dow AgroSciences LLC, priority 2017, dated 2021)
